Tests used:
Experiment in all cases: Kinase panel profiling at 1 µmol/L (mobility shift assay, Carna)
Type in all cases: biochemical
Conditions in all cases: 1 µmol/L of BTK inhibitor
AKT2 = biological target: T1, AKT2 (Homo sapiens, UniProt P31751)
T1 construct: purchased Carna Biosciences

PRKX = biological target: T2, PRKX (Homo sapiens, UniProt P51817)
T2 construct: purchased Carna Biosciences
T2 sequence (P51817 1-358): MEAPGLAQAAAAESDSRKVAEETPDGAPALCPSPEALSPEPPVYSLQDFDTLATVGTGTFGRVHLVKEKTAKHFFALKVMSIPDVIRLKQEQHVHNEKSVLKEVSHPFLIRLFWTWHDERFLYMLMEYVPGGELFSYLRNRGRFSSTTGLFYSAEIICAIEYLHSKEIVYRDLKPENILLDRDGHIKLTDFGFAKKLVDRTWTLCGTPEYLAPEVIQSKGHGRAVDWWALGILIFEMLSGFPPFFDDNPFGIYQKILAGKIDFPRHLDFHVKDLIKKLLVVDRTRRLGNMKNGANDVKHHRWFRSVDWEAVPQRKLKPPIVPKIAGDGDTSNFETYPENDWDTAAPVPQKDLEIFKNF

PKCι = biological target: T3, PKCι (Homo sapiens, UniProt P41743)
T3 construct: purchased Carna Biosciences
T3 sequence (P41743 1-596): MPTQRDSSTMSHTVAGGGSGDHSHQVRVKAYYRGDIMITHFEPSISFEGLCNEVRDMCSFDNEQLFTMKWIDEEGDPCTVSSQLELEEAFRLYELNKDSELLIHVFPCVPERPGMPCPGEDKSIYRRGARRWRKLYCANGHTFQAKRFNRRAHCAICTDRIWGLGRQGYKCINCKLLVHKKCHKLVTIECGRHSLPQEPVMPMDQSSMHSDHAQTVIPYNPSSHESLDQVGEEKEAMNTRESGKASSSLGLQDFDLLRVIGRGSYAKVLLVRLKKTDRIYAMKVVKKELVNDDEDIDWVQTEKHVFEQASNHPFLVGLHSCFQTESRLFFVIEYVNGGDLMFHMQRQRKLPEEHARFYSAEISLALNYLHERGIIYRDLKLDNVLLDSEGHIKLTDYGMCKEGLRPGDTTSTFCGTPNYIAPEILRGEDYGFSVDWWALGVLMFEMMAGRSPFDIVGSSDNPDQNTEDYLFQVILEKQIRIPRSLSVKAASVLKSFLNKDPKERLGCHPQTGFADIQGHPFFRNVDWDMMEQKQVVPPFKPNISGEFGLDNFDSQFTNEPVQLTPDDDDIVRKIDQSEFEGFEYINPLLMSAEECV

TYK2 = biological target: T4, TYK2 (Homo sapiens, UniProt P29597)
T4 construct: purchased Carna Biosciences

FYN [isoform a] = biological target: T5, FYN [isoform a] (Homo sapiens, UniProt P06241)
T5 construct: purchased Carna Biosciences

EPHA2 = biological target: T6, EPHA2 (Homo sapiens, UniProt P29317)
T6 construct: purchased Carna Biosciences

LOK = biological target: T7, LOK (Homo sapiens, UniProt O94804)
T7 construct: purchased Carna Biosciences

NDR2 = biological target: T8, NDR2 (Homo sapiens, UniProt Q9Y2H1)
T8 construct: purchased Carna Biosciences

DDR2 = biological target: T9, DDR2 (Homo sapiens, UniProt Q16832)
T9 construct: purchased Carna Biosciences
T9 sequence (Q16832 22-855): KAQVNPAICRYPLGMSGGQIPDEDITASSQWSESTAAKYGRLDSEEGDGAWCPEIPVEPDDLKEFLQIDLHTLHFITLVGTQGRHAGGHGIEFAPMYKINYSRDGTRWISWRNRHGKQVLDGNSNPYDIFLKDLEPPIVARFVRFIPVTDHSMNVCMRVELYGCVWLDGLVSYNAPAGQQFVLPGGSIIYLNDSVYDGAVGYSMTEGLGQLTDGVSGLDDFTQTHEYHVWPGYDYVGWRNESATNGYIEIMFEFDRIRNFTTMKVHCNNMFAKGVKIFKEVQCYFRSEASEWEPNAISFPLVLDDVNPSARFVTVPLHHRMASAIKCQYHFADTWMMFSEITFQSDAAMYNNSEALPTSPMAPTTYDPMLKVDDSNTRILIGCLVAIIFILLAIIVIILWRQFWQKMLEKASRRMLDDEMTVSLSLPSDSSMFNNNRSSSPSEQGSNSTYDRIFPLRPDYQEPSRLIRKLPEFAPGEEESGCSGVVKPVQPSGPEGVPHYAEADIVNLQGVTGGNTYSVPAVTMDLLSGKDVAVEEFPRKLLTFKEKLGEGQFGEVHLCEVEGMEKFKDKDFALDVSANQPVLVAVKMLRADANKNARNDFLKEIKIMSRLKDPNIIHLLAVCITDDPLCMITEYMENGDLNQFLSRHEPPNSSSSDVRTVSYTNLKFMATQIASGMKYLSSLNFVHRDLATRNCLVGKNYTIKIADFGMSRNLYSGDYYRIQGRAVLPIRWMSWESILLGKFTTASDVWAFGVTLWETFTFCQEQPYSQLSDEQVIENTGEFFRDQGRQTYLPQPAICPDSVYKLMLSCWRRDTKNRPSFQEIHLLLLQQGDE

AMPKα2/β1/γ1 = biological target: T10, AMPKα2/β1/γ1 (Homo sapiens, UniProt P54646)
T10 construct: purchased Carna Biosciences

PKR = biological target: T11, PKR (Homo sapiens, UniProt P19525)
T11 construct: purchased Carna Biosciences

p38α = biological target: T12, p38α (Homo sapiens, UniProt Q16539)
T12 construct: purchased Carna Biosciences
T12 sequence (Q16539 whole entry): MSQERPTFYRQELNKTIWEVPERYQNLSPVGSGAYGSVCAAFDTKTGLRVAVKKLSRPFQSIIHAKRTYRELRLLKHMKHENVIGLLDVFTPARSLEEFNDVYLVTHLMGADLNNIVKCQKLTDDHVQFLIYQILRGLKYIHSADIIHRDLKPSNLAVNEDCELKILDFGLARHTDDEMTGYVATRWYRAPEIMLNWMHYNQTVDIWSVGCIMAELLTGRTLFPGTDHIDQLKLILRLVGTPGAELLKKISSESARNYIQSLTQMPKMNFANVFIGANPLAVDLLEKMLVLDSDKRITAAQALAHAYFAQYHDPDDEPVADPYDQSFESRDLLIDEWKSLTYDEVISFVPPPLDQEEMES

T5 sequence (P06241 whole entry, canonical isoform): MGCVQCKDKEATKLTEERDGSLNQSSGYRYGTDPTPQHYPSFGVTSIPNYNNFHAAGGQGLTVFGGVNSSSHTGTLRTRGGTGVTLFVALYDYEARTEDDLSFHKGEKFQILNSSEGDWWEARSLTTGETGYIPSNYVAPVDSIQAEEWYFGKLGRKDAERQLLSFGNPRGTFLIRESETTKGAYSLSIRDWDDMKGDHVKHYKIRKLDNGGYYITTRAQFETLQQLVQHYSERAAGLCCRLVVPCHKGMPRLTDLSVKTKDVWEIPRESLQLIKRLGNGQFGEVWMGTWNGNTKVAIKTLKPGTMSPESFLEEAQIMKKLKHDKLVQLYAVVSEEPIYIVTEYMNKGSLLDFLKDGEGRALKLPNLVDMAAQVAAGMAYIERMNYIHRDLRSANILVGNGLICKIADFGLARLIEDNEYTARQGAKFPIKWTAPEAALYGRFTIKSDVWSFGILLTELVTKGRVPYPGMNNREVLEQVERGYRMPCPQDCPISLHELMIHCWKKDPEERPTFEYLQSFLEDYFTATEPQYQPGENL
T1 sequence (P31751 whole entry): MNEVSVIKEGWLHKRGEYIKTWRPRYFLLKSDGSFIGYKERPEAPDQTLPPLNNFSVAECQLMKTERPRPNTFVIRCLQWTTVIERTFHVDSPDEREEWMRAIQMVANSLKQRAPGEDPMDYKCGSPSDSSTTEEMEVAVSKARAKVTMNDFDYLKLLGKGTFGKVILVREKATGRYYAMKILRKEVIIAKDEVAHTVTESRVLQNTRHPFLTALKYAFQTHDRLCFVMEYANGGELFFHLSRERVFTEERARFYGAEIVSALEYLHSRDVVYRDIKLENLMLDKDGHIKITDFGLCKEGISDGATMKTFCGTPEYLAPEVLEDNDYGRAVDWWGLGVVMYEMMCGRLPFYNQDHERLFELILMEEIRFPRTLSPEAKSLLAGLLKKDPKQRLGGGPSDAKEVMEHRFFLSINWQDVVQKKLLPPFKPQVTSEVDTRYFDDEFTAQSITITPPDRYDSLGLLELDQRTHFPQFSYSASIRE
T8 sequence (Q9Y2H1 whole entry): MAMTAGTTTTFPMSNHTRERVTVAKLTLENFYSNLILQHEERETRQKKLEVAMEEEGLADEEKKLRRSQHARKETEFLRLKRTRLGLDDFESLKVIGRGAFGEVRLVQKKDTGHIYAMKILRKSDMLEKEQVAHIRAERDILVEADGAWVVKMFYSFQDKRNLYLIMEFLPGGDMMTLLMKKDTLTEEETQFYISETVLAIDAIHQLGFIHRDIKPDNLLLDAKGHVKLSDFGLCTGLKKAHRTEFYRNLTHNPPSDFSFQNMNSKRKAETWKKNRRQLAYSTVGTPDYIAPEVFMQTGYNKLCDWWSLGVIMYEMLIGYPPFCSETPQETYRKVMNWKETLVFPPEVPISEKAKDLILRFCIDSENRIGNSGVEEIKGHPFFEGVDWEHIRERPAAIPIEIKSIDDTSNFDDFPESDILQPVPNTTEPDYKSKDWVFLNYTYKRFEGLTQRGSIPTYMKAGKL
T10 sequence (P54646 whole entry): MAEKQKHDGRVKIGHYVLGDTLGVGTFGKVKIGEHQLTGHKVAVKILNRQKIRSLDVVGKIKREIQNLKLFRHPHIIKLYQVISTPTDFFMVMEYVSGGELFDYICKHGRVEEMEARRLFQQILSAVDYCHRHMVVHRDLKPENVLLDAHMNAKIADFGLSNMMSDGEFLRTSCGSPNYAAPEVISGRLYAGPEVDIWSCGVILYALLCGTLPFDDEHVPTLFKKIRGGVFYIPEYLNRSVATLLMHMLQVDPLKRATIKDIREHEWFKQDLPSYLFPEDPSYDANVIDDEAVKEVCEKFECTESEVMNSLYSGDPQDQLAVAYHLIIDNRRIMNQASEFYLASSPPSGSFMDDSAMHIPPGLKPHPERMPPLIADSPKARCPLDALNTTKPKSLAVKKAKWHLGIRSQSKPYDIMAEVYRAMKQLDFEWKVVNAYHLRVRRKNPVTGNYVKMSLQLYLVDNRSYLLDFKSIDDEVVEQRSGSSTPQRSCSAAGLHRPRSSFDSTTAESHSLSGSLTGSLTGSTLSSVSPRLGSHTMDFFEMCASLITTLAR
T10 sequence (Q9Y478 whole entry partner): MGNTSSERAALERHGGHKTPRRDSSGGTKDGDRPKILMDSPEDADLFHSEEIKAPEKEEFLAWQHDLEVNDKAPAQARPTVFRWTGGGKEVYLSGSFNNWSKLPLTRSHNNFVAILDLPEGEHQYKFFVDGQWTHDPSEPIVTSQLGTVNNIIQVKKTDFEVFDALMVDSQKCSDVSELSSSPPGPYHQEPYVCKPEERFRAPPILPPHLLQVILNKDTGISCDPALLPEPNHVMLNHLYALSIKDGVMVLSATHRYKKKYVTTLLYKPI
T10 sequence (P54619 whole entry partner): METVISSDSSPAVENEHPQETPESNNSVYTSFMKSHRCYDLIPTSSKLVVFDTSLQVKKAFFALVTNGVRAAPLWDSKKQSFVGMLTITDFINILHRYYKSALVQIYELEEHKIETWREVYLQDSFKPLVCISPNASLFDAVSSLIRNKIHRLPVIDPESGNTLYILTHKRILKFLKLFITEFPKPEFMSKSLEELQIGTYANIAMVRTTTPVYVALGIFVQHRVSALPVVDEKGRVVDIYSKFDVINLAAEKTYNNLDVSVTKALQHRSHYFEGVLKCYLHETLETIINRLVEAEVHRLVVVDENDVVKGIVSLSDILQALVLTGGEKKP
T6 sequence (P29317 24-976): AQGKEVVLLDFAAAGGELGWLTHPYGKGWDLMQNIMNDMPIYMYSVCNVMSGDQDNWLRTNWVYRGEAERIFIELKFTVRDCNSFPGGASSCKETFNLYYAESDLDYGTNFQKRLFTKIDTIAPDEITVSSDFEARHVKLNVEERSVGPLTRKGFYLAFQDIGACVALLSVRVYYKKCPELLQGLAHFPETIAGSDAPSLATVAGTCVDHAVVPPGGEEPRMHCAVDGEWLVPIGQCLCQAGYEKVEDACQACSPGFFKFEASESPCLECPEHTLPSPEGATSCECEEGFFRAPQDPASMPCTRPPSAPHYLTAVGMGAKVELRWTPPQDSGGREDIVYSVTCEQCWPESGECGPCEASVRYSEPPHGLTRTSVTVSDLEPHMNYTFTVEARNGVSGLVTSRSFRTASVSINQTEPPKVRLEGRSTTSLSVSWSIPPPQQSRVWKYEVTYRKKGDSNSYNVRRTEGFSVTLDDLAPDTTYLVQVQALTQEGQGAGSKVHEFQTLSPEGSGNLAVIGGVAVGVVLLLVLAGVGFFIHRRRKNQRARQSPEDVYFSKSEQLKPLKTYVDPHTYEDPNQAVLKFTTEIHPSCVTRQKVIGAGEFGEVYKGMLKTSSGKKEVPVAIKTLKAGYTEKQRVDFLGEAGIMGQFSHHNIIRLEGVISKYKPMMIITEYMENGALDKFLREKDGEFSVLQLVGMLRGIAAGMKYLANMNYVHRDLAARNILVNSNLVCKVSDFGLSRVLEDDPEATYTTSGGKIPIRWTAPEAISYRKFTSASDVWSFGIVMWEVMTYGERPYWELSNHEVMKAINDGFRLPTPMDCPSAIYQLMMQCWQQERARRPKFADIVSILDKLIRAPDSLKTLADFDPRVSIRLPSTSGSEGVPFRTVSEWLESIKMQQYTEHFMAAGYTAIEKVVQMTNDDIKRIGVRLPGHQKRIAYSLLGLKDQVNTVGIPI
T7 sequence (O94804 whole entry): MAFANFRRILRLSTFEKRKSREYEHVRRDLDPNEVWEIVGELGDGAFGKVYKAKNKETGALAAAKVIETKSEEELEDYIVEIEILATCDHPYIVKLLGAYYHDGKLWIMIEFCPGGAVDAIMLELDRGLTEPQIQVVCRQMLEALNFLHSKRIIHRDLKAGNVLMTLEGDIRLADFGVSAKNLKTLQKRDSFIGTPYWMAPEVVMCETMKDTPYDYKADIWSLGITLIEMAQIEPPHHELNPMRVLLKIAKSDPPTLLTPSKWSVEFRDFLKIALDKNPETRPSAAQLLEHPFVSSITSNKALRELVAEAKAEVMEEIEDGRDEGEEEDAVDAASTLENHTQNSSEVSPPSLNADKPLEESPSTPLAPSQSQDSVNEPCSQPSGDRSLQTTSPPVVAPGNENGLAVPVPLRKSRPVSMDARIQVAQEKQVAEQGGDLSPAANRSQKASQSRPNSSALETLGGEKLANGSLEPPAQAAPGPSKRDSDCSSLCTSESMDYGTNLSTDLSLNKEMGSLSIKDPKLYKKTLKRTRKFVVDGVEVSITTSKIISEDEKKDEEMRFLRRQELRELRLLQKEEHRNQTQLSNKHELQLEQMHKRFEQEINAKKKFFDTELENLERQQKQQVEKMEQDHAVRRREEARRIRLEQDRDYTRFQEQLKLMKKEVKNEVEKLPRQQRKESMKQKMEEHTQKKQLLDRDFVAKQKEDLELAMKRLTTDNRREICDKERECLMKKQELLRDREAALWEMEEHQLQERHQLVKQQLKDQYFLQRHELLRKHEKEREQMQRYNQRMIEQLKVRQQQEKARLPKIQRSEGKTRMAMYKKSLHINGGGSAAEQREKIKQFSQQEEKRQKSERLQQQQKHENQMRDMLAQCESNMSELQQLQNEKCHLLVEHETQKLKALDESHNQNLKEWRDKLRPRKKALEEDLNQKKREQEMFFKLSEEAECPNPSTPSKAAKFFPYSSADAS

Compound	Percentage inhibition of kinase enzyme activity (AKT2) [%]	Percentage inhibition of kinase enzyme activity (PRKX) [%]	Percentage inhibition of kinase enzyme activity (PKCι) [%]	Percentage inhibition of kinase enzyme activity (TYK2) [%]	Percentage inhibition of kinase enzyme activity (FYN [isoform a]) [%]	Percentage inhibition of kinase enzyme activity (EPHA2) [%]	Percentage inhibition of kinase enzyme activity (LOK) [%]	Percentage inhibition of kinase enzyme activity (NDR2) [%]	Percentage inhibition of kinase enzyme activity (DDR2) [%]	Percentage inhibition of kinase enzyme activity (AMPKα2/β1/γ1) [%]	Percentage inhibition of kinase enzyme activity (PKR) [%]	Percentage inhibition of kinase enzyme activity (p38α) [%]
CC#CC(=O)N1CCC[C@H]1c1nc(-c2ccc(C(=O)Nc3ccccn3)cc2)c2c(N)nccn12 [acalabrutinib]	-2.69	-4.59	-8.38	12.80	5.84	-3.60	3.37	-6.41	6.23	3.50	7.19	-0.75
C=CC(=O)N1CCC[C@@H](n2nc(-c3ccc(Oc4ccccc4)cc3)c3c(N)ncnc32)C1 [ibrutinib]	-3.12	0.66	2.23	6.93	92.75	6.83	24.15	3.47	17.34	10.21	5.63	-2.71
O=C(c1ccc(Oc2ccccc2)cc1Cl)c1c[nH]c2ncnc(N[C@@H]3CC[C@@H](CO)OC3)c12 [nemtabrutinib]	4.40	1.65	-1.29	10.79	–	33.13	83.97	-0.25	93.92	40.46	29.57	2.09
COc1ccc(F)cc1C(=O)NCc1ccc(-c2nn([C@@H](C)C(F)(F)F)c(N)c2C(N)=O)cc1 [pirtobrutinib]	-4.63	9.51	0.51	-2.78	12.27	4.53	-1.51	-4.16	9.58	6.23	7.39	-2.18
C=CC(=O)N1CCC([C@@H]2CCNc3c(C(N)=O)c(-c4ccc(Oc5ccccc5)cc4)nn32)CC1 [zanubrutinib]	–	–	–	–	–	-0.10	–	0.50	–	–	–	–

From paper PMC12586182 (Frontiers in Oncology, 2025)
